Source: article PMC9861212 (Metabolites, 2022)
Like-named read-outs stand apart in the source and are kept apart here. Each block holds one molecule with its values, some of them ahead of it.

Assays:
[1] = cited from earlier work
[2] = system: TA100 strain of Salmonella typhimurium; settings: cited from earlier work
[3] = Metabolite profile of SMZ in chickens (LC-v.ARC/MS-IT-TOF); type: in vivo; settings: for Share of the total radioactivity in feces: 0.5–1 d after administration; for Percentage of the individual metabolite compared with total concentration of SMZ-related compounds: within 12 h after dosing
Protocol: (§1) (0.1 Ci/g). […] Urine and feces samples were stored at −80 °C.
(§2) The weight of each aliquot was 0.1% of the total fraction weight (0.25% for urine). Each sample was centrifuged at 4 °C for 5 min at 4000 rpm/min. The supernatant was collected and 2 mol/L methanol-mixed acid (methanol: 0.5% perchloric acid, 8:1, v:v) was added. Then, the mixture was centrifugated at 10,000 r/min for 10 min, the supernatant was collected and dried with nitrogen at 45 °C. […] The mixture was subjected to Liquid Chromatography tandem on-line isotope detector/Time of Flight Mass Spectrometry (LC-ν.ARC/MS-IT-TOF) system analysis.
(§3) The mixture was prepared for LC-ν. ARC/MS-IT-TOF system analysis.
(§4) X is the percentage of the individual radioactive substances within the total radioactive residues. AUCM is the area under the curve of the individual radioactive substances in the specific samples. AUCT is the area under the curve of the total radioactive residues in the specific samples.

[4] = Metabolite profile of SMZ in rats (LC-v.ARC/MS-IT-TOF); type: in vivo; settings: rat urine; after i.m. injection
Protocol: as §1, §2, §3, §4

[5] = Metabolite profile of SMZ in pigs (LC-v.ARC/MS-IT-TOF); type: in vivo; settings: for Detection in feces: pig feces, 7 d after administration
Protocol: as §1
as §2, with “Each” for “The weight of each aliquot was 0.1% of the total fraction weight (0.25% for urine). Each”
as §3, §4

[6] = Tissue distribution and residue depletion in chickens; settings: for Concentration of the metabolites in kidney: oral gavage 25 mg/kg twice a day for 7 d, 3 d
Protocol: In addition, the animals in the blank group (pigs and chickens) and the animals in the treatment group were given physiological saline and 0.5% carboxymethyl cellulose aqueous solution in exactly the same dose and in exactly the same way. […] The same as above, at each sampling time point, a non-administered animal was killed and a sample was taken to obtain a blank sample. The medication groups samples and blank samples were washed and their weight was recorded. Afterwards, all samples were homogenized and divided into two parts. One part was used to detect the total radioactivity, and the other part was used for SMZ and metabolite analysis.
(§5) The total radioactivity in the samples were measured by Packard Tricarb 2900 liquid scintillation analyzer (LSC). The pretreated 200 μL liquid sample (urine, blood, and bile) was taken and 10 mL of Ultima Gold scintillation fluid was added for total radioactivity detection by LSC. Then, 200 mg of solid samples (feces and tissues) were accurately weighed, and 2 mL of digestion solution were added and mixed well, then the samples were placed in a 55 °C water bath for 6 h, and cooled to room temperature for later use. Then, 0.1 mol/L disodium edetate (EDTA-2Na) and 30% H2O2 of 200 μL were added and mixed evenly. At room temperature, 10 mL Ultima Gold scintillation fluid was added, and radioactivity determination was performed after standing [21].
The feces and tissues (2 g) were extracted with 10 mL methanol and water (4:1, v:v). The mixture was vortexed and sonicated for 5 min and 10 min, respectively, and finally the samples were centrifugated at 8000 rpm/min for 10 min. The supernatants were transferred into a new centrifuge tube and the residues were further extracted with 10 mL methanol and water (4:1, v:v). The supernatants were combined and evaporated to dryness under a nitrogen stream at 45 °C. The residues were dissolved with 0.5 mL of mobile phase and vortexed mixed for 30 s. Then, 1 mL n-hexane was added to remove the lipid, the mixture was vortexed evenly mixed, centrifugated at 10,000 rpm/min for 10 min and the n-hexane layer was discarded. […] The SMZ and its metabolites in the prepared samples were determined by a ν. ARC radiation detector and a hybrid IT/TOF mass spectrometer connected to the HPLC system (Shimadzu Corp., Kyoto, Japan). The HPLC system was equipped with a solvent delivery pump (LC20AD), autosampler (SIL20AC), DGU20A3 degasser, photodiode array detector (SPDM20A), communication base module (CBM20A), and a column oven (CTO20AC). Separation was performed on a X Bridge C18 column (150 × 2.1 mm; 3.5 μm) using a gradient elution consisting of mobile phase A (0.1% formic acid in water) and mobile phase B (acetonitrile). […] Photo-diode array (PDA) detection was performed from 200 to 400 nm. The sample chamber in the autosampler was maintained at 4 °C, whereas the column was set at 25 °C. The total effluent from the detector was transferred directly to the hybrid IT-TOF mass spectrometer without splitting. Metabolites were isolated and identified using a Shimadzu high-performance liquid chromatography-mass spectrometry-ion trap-time-of-flight (LC-MS-IT-TOF) hybrid mass spectrometer equipped with an electrospray ionization (ESI) source and operated in the positive mode. The eluate from the chromatographic separation was divided into two portions.

[7] = Tissue distribution and residue depletion in pigs
Protocol: (§6) Another 6 rats were administered physiological saline at the same dose and in exactly the same way as the other animals. The same as above, at each sampling time point, a non-administered animal was killed and a sample was taken to obtain a blank sample. The medication groups samples and blank samples were washed and their weight was recorded. Afterwards, all samples were homogenized and divided into two parts. One part was used to detect the total radioactivity, and the other part was used for SMZ and metabolite analysis.
as §5
The feces and tissues (2 g) were extracted with 10 mL methanol and water (4:1, v:v). The mixture was vortexed and sonicated for 5 min and 10 min, respectively, and finally the samples were centrifugated at 8000 rpm/min for 10 min. The supernatants were transferred into a new centrifuge tube and the residues were further extracted with 10 mL methanol and water (4:1, v:v). The supernatants were combined and evaporated to dryness under a nitrogen stream at 45 °C. The residues were dissolved with 0.5 mL of mobile phase and vortexed mixed for 30 s. Then, 1 mL n-hexane was added to remove the lipid, the mixture was vortexed evenly mixed, centrifugated at 10,000 rpm/min for 10 min and the n-hexane layer was discarded. […] The SMZ and its metabolites in the prepared samples were determined by a ν. ARC radiation detector and a hybrid IT/TOF mass spectrometer connected to the HPLC system (Shimadzu Corp., Kyoto, Japan). The HPLC system was equipped with a solvent delivery pump (LC20AD), autosampler (SIL20AC), DGU20A3 degasser, photodiode array detector (SPDM20A), communication base module (CBM20A), and a column oven (CTO20AC). Separation was performed on a X Bridge C18 column (150 × 2.1 mm; 3.5 μm) using a gradient elution consisting of mobile phase A (0.1% formic acid in water) and mobile phase B (acetonitrile). […] Photo-diode array (PDA) detection was performed from 200 to 400 nm. The sample chamber in the autosampler was maintained at 4 °C, whereas the column was set at 25 °C. The total effluent from the detector was transferred directly to the hybrid IT-TOF mass spectrometer without splitting. Metabolites were isolated and identified using a Shimadzu high-performance liquid chromatography-mass spectrometry-ion trap-time-of-flight (LC-MS-IT-TOF) hybrid mass spectrometer equipped with an electrospray ionization (ESI) source and operated in the positive mode. The eluate from the chromatographic separation was divided into two portions. The portion for metabolic quantification was applied to a ν.ARC 2.0, and the rest was analyzed and identified by ion trap time-of-flight tandem mass spectrometry (IT-TOF-MS/MS). Radiochemical detection was performed using the ν.ARC 2.0 Radio-LC system Detector RS232 equipped with a 500 μL detector cell (AIM Research Co., Hockessin, DE, USA).

[8] = pigs, single i.m. 25 mg/kg b.w.
Protocol: (§7) Six Wistar rats (three females and three males), six chickens and four pigs were housed in clean metabolic cages. […] (0.1 Ci/g). The broiler chickens were given the same dose by oral gavage. According to the recommended guidelines, the urine and feces samples of these animals were collected at different time intervals. […] At the end of the experiment, all animals were anesthetized and sacrificed in accordance with euthanasia guidelines (AVMA, 2001). Urine and feces samples were stored at −80 °C.
as §5

[9] = Tissue distribution and residue depletion in rats; settings: single i.m. dose
Protocol: as §6
The total radioactivity in the samples were measured by Packard Tricarb 2900 liquid scintillation analyzer (LSC). The pretreated 200 μL liquid sample (urine, blood, and bile) was taken and 10 mL of Ultima Gold scintillation fluid was added for total radioactivity detection by LSC. […] At room temperature, 10 mL Ultima Gold scintillation fluid was added, and radioactivity determination was performed after standing [21].
The feces and tissues (2 g) were extracted with 10 mL methanol and water (4:1, v:v). […] The SMZ and its metabolites in the prepared samples were determined by a ν. […] The portion for metabolic quantification was applied to a ν.ARC 2.0, and the rest was analyzed and identified by ion trap time-of-flight tandem mass spectrometry (IT-TOF-MS/MS). […]

[10] = chickens, single oral gavage 25 mg/kg b.w.
Protocol: as §7, §5

[11] = pig, within 12 h after administration
[12] = female rats, single i.m. 25 mg/kg b.w., within 14 d
[13] = male rats, single i.m. 25 mg/kg b.w., within 14 d
[14] = chicken, 6 h after administration
[15] = female rats, single i.m. 25 mg/kg b.w., 0–0.5 d
[16] = female rats, single i.m. 25 mg/kg b.w., 0.5–1 d
[17] = female rats, single i.m. 25 mg/kg b.w., 1–3 d
[18] = female rats, single i.m. 25 mg/kg b.w., 3–7 d
[19] = female rats, single i.m. 25 mg/kg b.w., 7–14 d
[20] = male rats, single i.m. 25 mg/kg b.w., 0–0.5 d
[21] = male rats, single i.m. 25 mg/kg b.w., 0.5–1 d
[22] = male rats, single i.m. 25 mg/kg b.w., 1–3 d
[23] = male rats, single i.m. 25 mg/kg b.w., 3–7 d
[24] = male rats, single i.m. 25 mg/kg b.w., 7–14 d

SMILES: CC(=O)ONc1ccc(S(=O)(=O)Nc2cc(C)on2)cc1 [N-acetoxy-SMZ]
In vitro cytotoxicity relative to S3 [1]: more toxic than S3 | Mutagenicity in the Ames test [2]: weak mutations

SMILES: Cc1cc(NS(=O)(=O)c2ccc(NC3OC(C(=O)O)C(O)C(O)C3O)cc2)no1 (stereo not drawn) [Compound S5, N4-glucuronidsulfamethoxazole]
Detection in feces by LC-MS-IT-TOF ([3]; chicken feces, 12 h): trace amount | Detection in urine by LC-MS-IT-TOF [4]: trace amounts | Detection in urine by LC/MS-IT-TOF ([5]; pig urine, 0–0.5 d): trace amounts

SMILES: Cc1cc(NS(=O)(=O)c2ccc(N)cc2)no1 [Compound S0, sulfamethoxazole]
Share of the total residues in fat [7, 11]: 41.9% | Share of the total residues in kidney [7, 11]: 33.5% | Share of the total residues in liver [7, 11]: 34.4% | Share of the total residues in muscle [7, 11]: 55.9% | Detection in feces [5]: not detected | Recovery of total radioactivity in feces ([8]; 0–14 d): 14.7% | Total recovery of radioactivity (urine + feces) [12]: 97% | Total recovery of radioactivity (urine + feces) [13]: 98% | Excreted through feces (rats (sexes together), single i.m. 25 mg/kg b.w., within 14 d): 21.4%

SMILES: CC(=O)Nc1ccc(S(=O)(=O)Nc2cc(C)on2)cc1 [Compound S1, N4-acetyl-sulfamethoxazole]
Share of the total residues in fat [7, 11]: 58.1% | Share of the total residues in kidney [7, 11]: 66.5% | Share of the total residues in muscle [7, 11]: 44.1% | Share of the residual amount in fat [6, 14]: 70.0% | Share of the residual amount in kidney [6, 14]: 1.0% | Share of the residual amount in liver [6, 14]: 71.7% | Share of the residual amount in muscle [6, 14]: 42.1% | Detection in feces [5]: detected

Further lines, with some results ahead:

Share of the total radioactivity in feces ([3]; chicken feces): 2.06% | Concentration of the metabolites in kidney ([6]; chicken): not detected
SMILES: Cc1cc(NS(=O)(=O)c2ccc(NS(=O)(=O)O)cc2)no1 [Compound S4, N4-sulfatesulfamethoxazole]

Percentage of the individual metabolite compared with total concentration of SMZ-related compounds ([3]; chicken Extra (feces/excreta)): 9.6% | Percentage of the individual metabolite compared with total concentration of SMZ-related compounds ([3]; chicken bile): 2.5% | Percentage of the individual metabolite compared with total concentration of SMZ-related compounds ([3]; chicken plasma (blood)): 1.2% | Concentration of the metabolites in kidney ([6]; chicken): not detected
SMILES: Nc1ccc(S(=O)(=O)Nc2cc(CO)on2)cc1 [Compound S2, 5-hydroxysulfamethoxazole]

Percentage of the individual metabolite compared with total concentration of SMZ-related compounds ([3]; chicken Extra (feces/excreta)): 4.4% | Percentage of the individual metabolite compared with total concentration of SMZ-related compounds ([3]; chicken bile): not detected | Share of the total radioactivity in feces ([3]; chicken feces): no longer detected | Percentage of the individual metabolite compared with total concentration of SMZ-related compounds ([3]; chicken plasma (blood)): 0.9% | Concentration of the metabolites in kidney ([6]; chicken): not detected
SMILES: Cc1cc(NS(=O)(=O)c2ccc(NO)cc2)no1 [Compound S3, N4-hydroxyamino sulfamethoxazole]
Reactivity / direct cytotoxicity [1]: neither highly reactive nor directly cytotoxic

Time point of the highest levels of radioactivity in all collected substrates [9]: 1 h | Time point of the highest levels of radioactivity in all collected substrates ([7]; pigs, i.m. 7 consecutive days): 12 h | Time point of the highest levels of radioactivity in all collected substrates ([6]; chickens, gavage 7 consecutive days): 6 h | Recovery of total radioactivity in excreta ([10]; 0–0.5 d, 25 mg/kg): 60.65 ± 13.08% | Recovery of total radioactivity in excreta ([10]; 0–14 d): 93.39 ± 2.28% | Recovery of total radioactivity in excreta ([10]; 0.5–1 d): 15.08 ± 6.87% | Recovery of total radioactivity in excreta ([10]; 1–3 d): 11.91 ± 9.67% | Recovery of total radioactivity in excreta ([10]; 3–7 d): 5.48 ± 1.89% | Recovery of total radioactivity in excreta ([10]; 7–14 d): 0.26 ± 0.13% | Recovery of total radioactivity in feces ([8]; 0–0.5 d): 5.56 ± 0.42% | Recovery of total radioactivity in urine ([8]; 0–0.5 d): 60.02 ± 16.54% | Total radioactive recovery rate (urine and feces) ([8]; 0–0.5 d): exceeds 65% | Recovery of total radioactivity in feces ([8]; 0–14 d): 14.72 ± 1.31% | Recovery of total radioactivity in feces ([8]; 0.5–1 d): 2.69 ± 3.12% | Recovery of total radioactivity in urine ([8]; 0.5–1 d): 15.3 ± 8.73% | Recovery of total radioactivity in feces ([8]; 1–3 d): 5.19 ± 3.36% | Recovery of total radioactivity in urine ([8]; 1–3 d): 4.52 ± 2.22% | Recovery of total radioactivity in feces ([8]; 3–7 d): 0.82 ± 0.34% | Recovery of total radioactivity in urine ([8]; 3–7 d): 0.59 ± 0.17% | Recovery of total radioactivity in feces ([8]; 7–14 d): 0.45 ± 0.3% | Recovery of total radioactivity in urine ([8]; 7–14 d): 0.16 ± 0.04% | Recovery of total radioactivity in feces [15]: 14.31 ± 1.73% | Recovery of total radioactivity in urine [15]: 45.38 ± 6.09% | Recovery of total radioactivity in feces (female rats, single i.m. 25 mg/kg b.w., 0–14 d): 19.58 ± 2.09% | Recovery of total radioactivity in feces [16]: 4.45 ± 1.87% | Recovery of total radioactivity in urine [16]: 19.41 ± 2.15% | Recovery of total radioactivity in feces [17]: 1.02 ± 0.72% | Recovery of total radioactivity in urine [17]: 10.09 ± 3.14% | Recovery of total radioactivity in feces [18]: 0.42 ± 0.28% | Recovery of total radioactivity in urine [18]: 3.97 ± 1.24% | Recovery of total radioactivity in feces [19]: 0.05 ± 0.03% | Recovery of total radioactivity in urine [19]: 0.38 ± 0.17% | Total recovery of radioactivity (urine + feces) [12]: 97.3 ± 1.16% | Recovery of total radioactivity in feces [20]: 17.3 ± 1.16% | Recovery of total radioactivity in urine [20]: 45.33 ± 4.79% | Recovery of total radioactivity in feces (male rats, single i.m. 25 mg/kg b.w., 0–14 d): 23.24 ± 1.79% | Recovery of total radioactivity in feces [21]: 5.3 ± 1.43% | Recovery of total radioactivity in urine [21]: 19.31 ± 7.15% | Recovery of total radioactivity in feces [22]: 0.35 ± 0.14% | Recovery of total radioactivity in urine [22]: 7.49 ± 2.04% | Recovery of total radioactivity in feces [23]: 0.25 ± 0.14% | Recovery of total radioactivity in urine [23]: 2.7 ± 1.89% | Recovery of total radioactivity in feces [24]: 0.05 ± 0.03% | Recovery of total radioactivity in urine [24]: 0.49 ± 0.3% | Total recovery of radioactivity (urine + feces) [13]: 98.56 ± 2.82% | Total radioactive recovery rate (urine and feces) (rats, single i.m. 25 mg/kg b.w., 0–0.5 d): > 59% | Dose excreted (total radioactivity) (rats, single i.m., within 14 days): more than 93%
SMILES: [3H]c1cc(N)ccc1S(=O)(=O)Nc1cc(C)on1 [[^3H]-SMZ, 2-[^3H]-sulfamethoxazole]
